Where two headings read alike, the source gives them in different places.

Here are results for 5 compounds from patent US9126999B2, “Tetrahydropyrazolopyrimidine compounds” (EISAI R&D MANAGEMENT CO., LTD., priority 2012, dated 2015).

One experiment concerns the target T1, Human TLR8 (Homo sapiens, UniProt Q9NR97).
T1 construct: host or cells: HEK-293 stably expressing human TLR8, then transfected with pNiFty2(NF-kappaB)-luciferase
T1 sequence (Q9NR97 27-1041): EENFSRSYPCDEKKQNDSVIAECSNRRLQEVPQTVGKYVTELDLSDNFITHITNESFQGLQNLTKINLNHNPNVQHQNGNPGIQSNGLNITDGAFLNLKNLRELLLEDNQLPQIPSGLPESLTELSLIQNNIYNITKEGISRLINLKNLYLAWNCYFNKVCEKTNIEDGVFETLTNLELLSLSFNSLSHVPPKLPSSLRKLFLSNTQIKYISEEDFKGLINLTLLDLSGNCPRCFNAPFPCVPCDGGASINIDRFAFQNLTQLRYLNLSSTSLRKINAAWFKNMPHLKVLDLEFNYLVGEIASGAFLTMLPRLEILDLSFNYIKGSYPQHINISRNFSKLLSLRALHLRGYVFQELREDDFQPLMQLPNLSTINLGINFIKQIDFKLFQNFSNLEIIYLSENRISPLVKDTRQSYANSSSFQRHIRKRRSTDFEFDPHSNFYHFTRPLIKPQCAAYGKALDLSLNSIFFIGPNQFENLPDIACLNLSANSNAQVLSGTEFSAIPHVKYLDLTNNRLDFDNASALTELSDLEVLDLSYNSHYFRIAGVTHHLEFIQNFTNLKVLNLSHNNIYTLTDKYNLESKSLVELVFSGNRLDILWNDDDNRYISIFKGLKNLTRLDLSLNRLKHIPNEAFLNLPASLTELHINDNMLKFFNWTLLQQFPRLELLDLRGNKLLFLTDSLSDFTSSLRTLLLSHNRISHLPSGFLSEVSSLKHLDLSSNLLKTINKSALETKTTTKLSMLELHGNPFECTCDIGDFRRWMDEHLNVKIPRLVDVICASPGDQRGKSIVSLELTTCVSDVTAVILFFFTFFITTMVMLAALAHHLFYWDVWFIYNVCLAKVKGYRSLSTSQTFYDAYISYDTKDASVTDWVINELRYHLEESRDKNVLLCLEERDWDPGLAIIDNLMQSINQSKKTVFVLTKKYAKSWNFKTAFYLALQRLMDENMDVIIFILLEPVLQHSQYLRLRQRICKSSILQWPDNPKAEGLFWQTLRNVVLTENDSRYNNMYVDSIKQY
The experiment can be described thus: HEK-293 NF-kappaB luciferase reporter assay, CL097 stimulus. The format is cell-based. To be noted: human TLR8 in the HEK-293 assay format; read-out: HEK/TLR8 IC50. The source says: In vitro pharmacology: HEK-293 cells (ATCC) were engineered to stably express a NF-kappaB transcription factor inducible E-selectin (ELAM-1) luciferase reporter derived from the plasmid pGL3 (Promega) containing base pairs −2241 bp to −254 bp from the promoter of the human E-selectin gene (Accession No. NM_000450). These cells were then subsequently engineered to stably and individually express human TLR4, TLR7 or TLR9 full-length ORF cDNAs. Human TLR4 cDNA (Accession No. NM_138554) was cloned into pcDNA 3.0 expression vector (Invitrogen). TLR4 transfected cells were also engineered to express human MD-2 co-receptor [MD-2 cDNA (Accession No. NM_015364) was cloned into the pEF-BOS vector] and were supplemented with 10 nM soluble CD14 (R&D Systems) in the media to optimize LPS responsiveness. Human TLR9 cDNA (Accession No. NM_017442) was cloned into the pBluescript II KS vector (Agilent). Human TLR7 cDNA (Accession No. NM_016562) was obtained from OriGene. HEK-293 cells stably expressing human TLR8 (Accession No. NM_138636) or mouse TLR7 (Accession No. NM_133211) were purchased from InvivoGen and were then stably transfected with pNiFty2(NF-kappaB)-luciferase reporter plasmid (InvivoGen). Each cell type was plated in Dulbecco's modified Eagle's medium (DMEM) containing 10% fetal bovine serum (FBS) at a density of 2.22×10^5 cells/ml into a 384-well plate and incubated for 2 days at 37° C., 5% CO2. Varying concentrations of antagonist compounds were then added. Cells were then incubated for another 30 minutes before adding the appropriate TLR agonist as follows (final concentrations indicated): lipopolysaccharide (LPS; Sigma) at 10 ng/ml for TLR4, CL097 (InvivoGen) at 3 ug/ml for human TLR7 and TLR8 and mouse TLR7, and CpG-2006-2A [sequence: […] (SEQ ID NO: 1) with phosphorothioate backbone, synthesized by Sigma-Aldrich] at 0.6 uM for TLR9.
(A reporter such as luciferase makes a cellular process visible.)

A further experiment concerns T2, Human TLR7/8.
T2 construct: IC50; other: Hu PBMC; ligand RNA-Ig; analyte IL-6; analyte TNFα; ligand R848; IC50 against the RNA-Ig TLR7/8 stimulus; cytokine responses to RNA-Ig complexes in vitro; potency against the RNA-Ig TLR7/8 stimulus versus HCQ
The experiment can be described thus: Human PBMC cell-based assay, RNA-Ig (SL4-Ig) stimulus, cytokine ELISA. As for the experimental part:
(§1) Briefly, 25 ml blood was diluted with 15 ml PBS (without Ca^2+, Mg^2+) in a 50 ml conical tube, and 12 ml Histopaque was underlaid using a spinal needle. Tubes were centrifuged for 45 minutes at 1200 rpm (350×g), and PBMC were collected from the buffy coat. Cells were then washed twice in PBS, and red blood cells were lysed by suspension in 5 ml ammonium chloride solution (1× Red Blood Cell Lysis Buffer, eBioscience) for 5 minutes at room temperature.
Antagonist compounds solubilized and serial diluted in 100% DMSO were added in triplicate to cells to yield a final concentration of 0.1% DMSO (v/v). Hydroxychloroquine (Acros Organics) solubilized and serial diluted in PBS was added in triplicate to cells. […] The resulting “RNA-Ig” stimulus was incubated at room temperature for 15-30 minutes before adding to cells. PBMC were incubated with the various TLR agonists for 20 hours at 37° C., 5% CO2. Cell culture supernatants were collected, and levels of various human cytokines were assessed as indicated by standard ELISA procedure according to the manufacturer's recommended protocol (BD Biosciences, Inc., San Diego, Calif.).
In general terms: In an ELISA, binding on a coated surface is turned into a signal by an enzyme label.

In a further experiment the target is Human TLR4 (Homo sapiens, UniProt O00206). Description: Human PBMC cell-based assay, LPS stimulus, IL-6 ELISA. On the set-up: endogenous in cells; host or cells: primary human PBMC from healthy donor blood. To be noted: Hu PBMC; ligand LPS; analyte IL-6. As for the experimental part:
as §1, with “Human peripheral blood mononuclear cells (PBMC) were isolated from freshly-drawn heparinized (10 USP units/ml, Hospira, Lakeforest, Ill.) healthy donor whole blood by density gradient (Histopaque® 1077, Sigma, Inc., St. Louis, Mo.). Briefly,” for “Briefly,”, “temperature. […]” for “temperature.”
(§2) Antagonist compounds solubilized and serial diluted in 100% DMSO were added in triplicate to cells to yield a final concentration of 0.1% DMSO (v/v). […] Cell culture supernatants were collected, and levels of various human cytokines were assessed as indicated by standard ELISA procedure according to the manufacturer's recommended protocol (BD Biosciences, Inc., San Diego, Calif.).

The target in a further experiment is T3, Human TLR9 (Homo sapiens, UniProt Q9NR96).
T3 sequence (Q9NR96 26-1032): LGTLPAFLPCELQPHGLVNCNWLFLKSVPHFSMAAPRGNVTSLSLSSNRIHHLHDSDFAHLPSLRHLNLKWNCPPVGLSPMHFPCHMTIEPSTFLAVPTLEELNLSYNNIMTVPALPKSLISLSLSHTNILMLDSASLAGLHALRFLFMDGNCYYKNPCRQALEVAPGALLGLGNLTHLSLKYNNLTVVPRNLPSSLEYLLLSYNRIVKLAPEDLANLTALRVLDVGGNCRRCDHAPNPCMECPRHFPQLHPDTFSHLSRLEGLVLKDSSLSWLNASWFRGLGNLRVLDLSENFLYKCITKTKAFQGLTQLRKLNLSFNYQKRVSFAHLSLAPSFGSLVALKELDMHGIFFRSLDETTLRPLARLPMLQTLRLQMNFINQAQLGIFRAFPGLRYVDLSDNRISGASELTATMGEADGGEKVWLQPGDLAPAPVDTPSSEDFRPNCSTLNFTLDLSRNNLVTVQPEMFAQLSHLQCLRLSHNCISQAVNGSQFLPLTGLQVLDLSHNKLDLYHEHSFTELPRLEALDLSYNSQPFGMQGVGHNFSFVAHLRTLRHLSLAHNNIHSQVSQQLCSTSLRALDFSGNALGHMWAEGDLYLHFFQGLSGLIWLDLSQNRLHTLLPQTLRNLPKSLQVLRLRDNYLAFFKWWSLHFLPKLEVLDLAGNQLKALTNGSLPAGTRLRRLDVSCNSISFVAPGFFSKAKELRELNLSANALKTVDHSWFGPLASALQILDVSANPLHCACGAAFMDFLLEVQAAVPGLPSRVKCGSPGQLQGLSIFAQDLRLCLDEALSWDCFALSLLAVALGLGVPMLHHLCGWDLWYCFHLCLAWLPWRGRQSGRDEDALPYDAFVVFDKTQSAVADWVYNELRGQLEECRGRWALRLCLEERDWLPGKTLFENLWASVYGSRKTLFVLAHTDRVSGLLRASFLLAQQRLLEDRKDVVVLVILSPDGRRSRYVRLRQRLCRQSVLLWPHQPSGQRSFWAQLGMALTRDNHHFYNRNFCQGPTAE
The experiment can be described thus: Human PBMC cell-based assay, CpG-ODN stimulus, IL-6 ELISA. The arrangement: endogenous in cells; host or cells: primary human PBMC from healthy donor blood. The following applies: Hu PBMC; ligand CpG-ODN; analyte IL-6. As for the experimental part: as §1, with “Human peripheral blood mononuclear cells (PBMC) were isolated from freshly-drawn heparinized (10 USP units/ml, Hospira, Lakeforest, Ill.) healthy donor whole blood by density gradient (Histopaque® 1077, Sigma, Inc., St. Louis, Mo.). Briefly,” for “Briefly,”, “temperature. […]” for “temperature.”
as §2

Where [1] appears, read: Human PBMC IL-6 Inhibition (SL4-Ig Ligand), read-out: Human PBMC IC50.

Human TLR4, sequence (O00206 24-839): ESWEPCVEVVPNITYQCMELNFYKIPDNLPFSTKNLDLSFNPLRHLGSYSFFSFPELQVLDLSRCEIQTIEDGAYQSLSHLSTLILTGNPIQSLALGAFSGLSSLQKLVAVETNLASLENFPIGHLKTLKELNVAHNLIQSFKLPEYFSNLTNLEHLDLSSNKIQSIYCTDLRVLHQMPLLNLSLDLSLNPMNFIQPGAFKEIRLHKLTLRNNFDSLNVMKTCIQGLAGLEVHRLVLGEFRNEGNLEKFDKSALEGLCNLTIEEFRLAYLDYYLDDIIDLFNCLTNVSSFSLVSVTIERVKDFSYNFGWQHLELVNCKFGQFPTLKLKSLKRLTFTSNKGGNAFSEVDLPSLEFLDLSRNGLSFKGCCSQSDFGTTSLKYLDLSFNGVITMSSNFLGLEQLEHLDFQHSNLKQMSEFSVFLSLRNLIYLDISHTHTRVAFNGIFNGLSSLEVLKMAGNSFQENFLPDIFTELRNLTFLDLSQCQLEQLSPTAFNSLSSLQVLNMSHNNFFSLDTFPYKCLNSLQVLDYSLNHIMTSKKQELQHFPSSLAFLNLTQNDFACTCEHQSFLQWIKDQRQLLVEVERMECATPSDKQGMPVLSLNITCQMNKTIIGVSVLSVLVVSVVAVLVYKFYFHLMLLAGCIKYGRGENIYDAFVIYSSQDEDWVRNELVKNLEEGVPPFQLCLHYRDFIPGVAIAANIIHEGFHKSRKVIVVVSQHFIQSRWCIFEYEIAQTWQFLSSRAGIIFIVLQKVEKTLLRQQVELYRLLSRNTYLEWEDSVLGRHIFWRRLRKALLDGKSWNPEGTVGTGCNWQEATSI
Human TLR4, sequence (Q9Y6Y9 19-160 partner): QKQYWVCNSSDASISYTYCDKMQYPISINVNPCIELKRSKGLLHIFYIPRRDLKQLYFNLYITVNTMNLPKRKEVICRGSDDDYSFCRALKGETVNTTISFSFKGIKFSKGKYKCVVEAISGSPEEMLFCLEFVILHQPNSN

Take `COc1cc(-c2cc3n(n2)C(C(F)(F)F)CC(c2ccc(OC)c(OC)c2)N3)ccn1` (racemic) [ER-886434]: the values for the IC50 at Human TLR8 and with Human TLR7/8 (setting [1]) were 300 nM and 414 nM, respectively.

Consider `Cc1nn(C)cc1C1CC(C(F)(F)F)n2nc(-c3ccc4c(cnn4C)c3C)cc2N1` (stereo not drawn) [ER-892900], for which the IC50 at Human TLR8 was 330 nM; with Human TLR7/8 (setting [1]), 744 nM.

With `COc1ccc([C@H]2C[C@@H](C(F)(F)F)n3nc(-c4ccc(C(=O)N5CCNCC5)cc4)cc3N2)cc1OC` [ER-892924], the IC50 came out at 220 nM at Human TLR8 and 160 nM in the experiment with Human TLR7/8 (setting [1]).

Consider `Cc1nn(C)cc1[C@H]1C[C@@H](C(F)(F)F)n2nc(-c3ccc4c(cnn4C)c3C)cc2N1` [ER-893987], for which the results for the IC50 at Human TLR8 and with Human TLR7/8 (setting [1]) were 220 nM and 2110 nM, respectively.

As for `CCN(CCO)CCCC(C)Nc1ccnc2cc(Cl)ccc12` (stereo not drawn) [HCQ, Hydroxychloroquine, reference compound], the IC50 in the experiment on Human TLR7/8 (Hu PBMC, ligand RNA-Ig, analyte IL-6, read-out: IC50) was 1000 to 2000 nM; with Human TLR7/8 (read-out: IC50 against the RNA-Ig TLR7/8 stimulus), roughly 1500 nM; at Human TLR4, greater than 10000 nM; at Human TLR9, 150 to 300 nM.
